In patent US12606520B2, “Calpain-2 inhibitor compounds and methods of treatment” (WESTERN UNIVERSITY OF HEALTH SCIENCES, priority 2020, dated 2026):

Key:
calpain-2 [1] = biological target: T1, calpain-2 (Mus musculus, UniProt O08529); experiment: Calpain-2 activity in calpain-1 KO mouse cerebellar homogenate (2 mM Ca2+), Suc-Leu-Tyr-AMC cleavage; format: biochemical; parameters: Calpain-2 activity=calpain activity under 2000 uM Ca^2+ in calpain-1 KO mice; from tissue; host or cells: calpain-1 knock-out mouse cerebellar (P2) homogenate
T1 sequence (O08529 1-700): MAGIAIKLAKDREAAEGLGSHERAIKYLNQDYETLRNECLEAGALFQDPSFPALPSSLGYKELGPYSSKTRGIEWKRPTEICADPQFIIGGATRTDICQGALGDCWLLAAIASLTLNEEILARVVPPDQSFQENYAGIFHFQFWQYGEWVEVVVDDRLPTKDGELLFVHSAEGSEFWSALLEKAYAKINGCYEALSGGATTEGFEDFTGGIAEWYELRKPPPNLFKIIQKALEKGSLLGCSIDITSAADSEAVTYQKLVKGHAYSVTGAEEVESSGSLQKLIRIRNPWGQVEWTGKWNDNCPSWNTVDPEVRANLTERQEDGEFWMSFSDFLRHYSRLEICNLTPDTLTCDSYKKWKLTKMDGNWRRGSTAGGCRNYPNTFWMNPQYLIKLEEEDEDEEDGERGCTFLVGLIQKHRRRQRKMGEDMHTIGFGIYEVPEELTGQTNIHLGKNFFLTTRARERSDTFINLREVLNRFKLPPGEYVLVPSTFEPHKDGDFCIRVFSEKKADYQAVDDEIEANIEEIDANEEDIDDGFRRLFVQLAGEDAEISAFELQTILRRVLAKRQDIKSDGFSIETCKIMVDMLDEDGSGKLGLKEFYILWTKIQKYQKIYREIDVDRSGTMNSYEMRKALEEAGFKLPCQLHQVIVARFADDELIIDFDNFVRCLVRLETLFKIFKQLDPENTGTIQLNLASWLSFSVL
T1 sequence (O88456 1-268 partner): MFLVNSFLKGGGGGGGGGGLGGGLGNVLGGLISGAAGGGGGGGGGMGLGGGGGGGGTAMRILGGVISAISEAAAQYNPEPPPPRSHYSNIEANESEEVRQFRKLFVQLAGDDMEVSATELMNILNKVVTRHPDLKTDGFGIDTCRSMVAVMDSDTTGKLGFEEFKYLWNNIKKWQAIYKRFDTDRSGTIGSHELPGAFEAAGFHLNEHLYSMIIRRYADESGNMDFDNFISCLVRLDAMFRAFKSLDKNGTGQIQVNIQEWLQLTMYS
Description: Cerebellar homogenates from wild-type (WT) or calpain-1 Knock-out (KO) mice were incubated with 20 μM calcium to activate calpain-1 or with 2 mM calcium to activate calpain-2, respectively, and increasing concentrations of NA112 (12). Calpain activity was measured by the cleavage of Succinyl-Leu-Tyr-7-amino-4-methylcoumarin (Suc-Leu-Tyr-AMC), resulting in increased fluorescence. Activity is normalized to the value measured in the presence of vehicle (DMSO).
WT or calpain-1 KO mouse cerebellar P2 homogenate (crude synaptosomal fraction) were used for measuring inhibitory activity of compounds against the mouse endogenous calpain-1/-2. Each reaction contains 100 ul of WT or calpain-1 KO mouse cerebellar P2 homogenate+0, 20 or 2000 uM Ca^2++0-10,000 nM NA184.
Calpain-2 activity=calpain activity under 2000 uM Ca^2+ in calpain-1 KO mice

calpain-2 [2] = biological target: T1, calpain-2; experiment: Calpain-2 activity after TBI in mice (i.p. dosing); format: in vivo; parameters: from tissue; host or cells: cerebellar P2 fractions / brain of wild-type mice after TBI
Description: Calpain activity in cerebellar P2 fractions was measured 24 h after traumatic brain injury (TBI) in adult wild-type mice and the assay results for calpain-1 and calpain-2 are shown in FIG. 2. 0.1 or 1 mg/kg of NA112 was injected intraperitoneally 1 h after TBI. Each measurement of in vivo selectivity was obtained as follows: • Calpain-1 activity: Calpain activity with 20 μM Ca^2+. Normalized to Vehicle. • Calpain-2 activity: Calpain activity with 5 mM Ca^2+ minus Calpain activity with 20 μM Ca^2+. Results are means S.E.M. of 3 experiments.
Calpain activity in cerebellar P2 fractions was measured 24 h after TBI in adult WT mice, and vehicle or 0.1 or 1 mg/kg of NA112 (12) dissolved in DMSO or liposomal formulation (lipo) was injected intraperitoneally 1 h after TBI. […]
Vehicle (DMSO or liposomes) or 0.1 or 1 mg/kg of NA112 (12) dissolved in DMSO or liposomal formulation (lipo) was injected intraperitoneally 1 h after TBI in WT mice. Calpain activity was measured 24 h later in cerebellar P2 fractions. Calpain-1 activity was measured in the presence of 20 μM calcium and calpain-2 activity was measured as the difference between calpain activity measured in the presence of 5 mM calcium and that measured in the presence of 20 μM calcium (FIG. 11). In both cases, calpain activity was normalized to the values measured in vehicle-treated mice. […]

| SMILES | IC50 (calpain-2 [1]; read-out: IC50, 2000 μM Ca^2+ (calpain-1 KO), calpain-1 KO mouse cerebellar homogenate, 2 mM calcium) [nM] | Calpain-2 inhibition, DMSO vs liposomes (calpain-2 [2]; 0.1 or 1 mg/kg i.p. 1 h after TBI, cerebellar P2 fractions 24 h after TBI) | Ratio (IC50 calpain-1/calpain-2) (calpain-2 [1]; mouse cerebellar P2 homogenate) | Calpain-2 inhibition in brain, male and female mice (calpain-2 [2]; 1 mg/kg i.p., 24 h after TBI) |
| --- | --- | --- | --- | --- |
| CCC(NC(=O)[C@H](CC(C)C)NC(=O)NCc1ccccc1)C(=O)C(=O)NCc1cc(OC)cc(OC)c1 (mixture of isomers) [NA112, (2S)-2-(3-benzylureido)-N-(1-((3,5-dimethoxybenzyl)amino)-1,2-dioxopentan-3-yl)-4-methylpentanamide] | 106 | same degree of calpain-2 inhibition | – | – |
| CCC(NC(=O)[C@H](CC(C)C)NC(=O)NCc1ccccc1)C(=O)C(=O)NCc1cccc(Cl)c1OC (stereo partly drawn) [NA184, (2S)-2-(3-benzylureido)-N-(1-((3-chloro-2-methoxybenzyl)amino)-1,2-dioxopentan-3-yl)-4-methylpentanamide] | – | – | 21 | significantly inhibited calpain-2 |
